Measurements published in patent US10787443B2, “RAF-degrading conjugate compounds” (ZAMBONI CHEM SOLUTIONS INC., priority 2017, dated 2020).

What follows are molecules tested on GST-Braf kinase domain and biotinylated E3 substrate adapter (VHL/EloB/EloC complex or CRBN318-425) (assay: Dimerization assay (AlphaScreen/AlphaLisa), RAF/E3 dimerization). Conditions: Table 15; relative value; compounds 4 fold serial dilutions from 20 μM.
Assay type: binding

| RAF/E3 Dimerization | SMILES |
| --- | --- |
| + (5% > RAF/E3 Dimerization) | Cc1ncc(NC(=O)c2cccc(C(F)(F)F)c2)cc1-c1cnc(OCCCCCCc2cn(CCCCCC(=O)Nc3cccc4c3C(=O)N(C3CCC(=O)NC3=O)C4=O)nn2)c(N2CCOCC2)c1 (stereo not drawn) [Compound 1.006, N-(6′-((6-(1-(6-((2-(2,6-dioxopiperidin-3-yl)-1,3-dioxoisoindolin-4-yl)amino)-6-oxohexyl)-1H-1,2,3-triazol-4-yl)hexyl)oxy)-2-methyl-5′-morpholino-[3,3′-bipyridin]-5-yl)-3-(trifluoromethyl)benzamide] |

Same assay, conditions: Table 17; relative value; compounds 4 fold serial dilutions from 20 μM

| RAF/E3 Dimerization | SMILES |
| --- | --- |
| ++ (25% > RAF/E3 Dimerization ≥ 5%) | O=C1CCC(N2C(=O)c3cccc(NC(=O)CCCCCn4cc(COCCOCCOCCOCCOCCNC(=O)c5cc(Oc6ccc(NC(=O)Nc7ccc(Cl)c(C(F)(F)F)c7)cc6)ccn5)nn4)c3C2=O)C(=O)N1 (stereo not drawn) [Compound 2.028, 4-(4-(3-(4-chloro-3-(trifluoromethyl)phenyl)ureido)phenoxy)-N-(1-(1-(6-((2-(2,6-dioxopiperidin-3-yl)-1,3-dioxoisoindolin-4-yl)amino)-6-oxohexyl)-1H-1,2,3-triazol-4-yl)-2,5,8,11,14-pentaoxahexadecan-16-yl)picolinamide] |
| +++ (50% > RAF/E3 Dimerization ≥ 25) | CCCCCCNC(=O)Nc1cc(-c2cc3cnc(NCCCCc4cn(CCCCC(=O)N[C@@H](C(=O)N5C[C@H](O)C[C@H]5C(=O)N[C@@H](C)c5ccc(-c6scnc6C)cc5)C(C)(C)C)nn4)nc3nc2C)c(C)cc1F [Compound 2.038, (2S,4R)-1-((R)-2-(5-(4-(4-((6-(4-fluoro-5-(3-hexylureido)-2-methylphenyl)-7-methylpyrido[2,3-d]pyrimidin-2-yl)amino)butyl)-1H-1,2,3-triazol-1-yl)pentanamido)-3,3-dimethylbutanoyl)-4-hydroxy-N—((S)-1-(4-(4-methylthiazol-5-yl)phenyl)ethyl)pyrrolidine-2-carboxamide] |
| ++ (25% > RAF/E3 Dimerization ≥ 5%) | CCCCCCNC(=O)Nc1cc(-c2cc3cnc(NCCCCc4cn(CCCCCC(=O)Nc5cccc6c5C(=O)N(C5CCC(=O)NC5=O)C6=O)nn4)nc3nc2C)c(C)cc1F (stereo not drawn) [Compound 2.036, N-(2-(2,6-dioxopiperidin-3-yl)-1,3-dioxoisoindolin-4-yl)-6-(4-(4-((6-(4-fluoro-5-(3-hexylureido)-2-methylphenyl)-7-methylpyrido[2,3-d]pyrimidin-2-yl)amino)butyl)-1H-1,2,3-triazol-1-yl)hexanamide] |
| +++++ (RAF/E3 Dimerization ≥75%) | CCCCCCNC(=O)Nc1cc(-c2cc3cnc(NCCOCCOCc4cn(CCCCCC(=O)N[C@@H](C(=O)N5C[C@H](O)C[C@H]5C(=O)N[C@@H](C)c5ccc(-c6scnc6C)cc5)C(C)(C)C)nn4)nc3nc2C)c(C)cc1F [Compound 2.039, (2S,4R)-1-((R)-2-(6-(4-((2-(2-((6-(4-fluoro-5-(3-hexylureido)-2-methylphenyl)-7-methylpyrido[2,3-d]pyrimidin-2-yl)amino)ethoxy)ethoxy)methyl)-1H-1,2,3-triazol-1-yl)hexanamido)-3,3-dimethylbutanoyl)-4-hydroxy-N—((S)-1-(4-(4-methylthiazol-5-yl)phenyl)ethyl)pyrrolidine-2-carboxamide] |

The remaining lines, values behind:

| SMILES | RAF/E3 Dimerization |
| --- | --- |
| O=C1CCC(N2C(=O)c3cccc(NC(=O)CCCCCn4cc(CCCCNC(=O)c5cc(Oc6ccc(NC(=O)Nc7ccc(Cl)c(C(F)(F)F)c7)cc6)ccn5)nn4)c3C2=O)C(=O)N1 (stereo not drawn) [Compound 2.026, 4-(4-(3-(4-chloro-3-(trifluoromethyl)phenyl)ureido)phenoxy)-N-(4-(1-(6-((2-(2,6-dioxopiperidin-3-yl)-1,3-dioxoisoindolin-4-yl)amino)-6-oxohexyl)-1H-1,2,3-triazol-4-yl)butyl)picolinamide] | + (5% > RAF/E3 Dimerization) |
| O=C1CCC(N2C(=O)c3cccc(NC(=O)CCCCCn4cc(CNC(=O)c5cc(Oc6ccc(NC(=O)Nc7ccc(Cl)c(C(F)(F)F)c7)cc6)ccn5)nn4)c3C2=O)C(=O)N1 (stereo not drawn) [Compound 2.024, 4-(4-(3-(4-chloro-3-(trifluoromethyl)phenyl)ureido)phenoxy)-N-((1-(6-((2-(2,6-dioxopiperidin-3-yl)-1,3-dioxoisoindolin-4-yl)amino)-6-oxohexyl)-1H-1,2,3-triazol-4-yl)methyl)picolinamide] | ++ (25% > RAF/E3 Dimerization ≥ 5%) |
| Cc1ncc(NC(=O)c2cccc(C(F)(F)F)c2)cc1-c1cnc(OC(C)Cc2cnnn2CCCCCC(=O)Nc2cccc3c2C(=O)N(C2CCC(=O)NC2=O)C3=O)c(N2CCOCC2)c1 (racemic) [Compound 1.010, (±)-N-(6′-((1-(1-(6-((2-(2,6-dioxopiperidin-3-yl)-1,3-dioxoisoindolin-4-yl)amino)-6-oxohexyl)-1H-1,2,3-triazol-5-yl)propan-2-yl)oxy)-2-methyl-5′-morpholino-[3,3′-bipyridin]-5-yl)-3-(trifluoromethyl)benzamide] | + (5% > RAF/E3 Dimerization) |
| O=C1CCC(N2C(=O)c3cccc(NC(=O)CCCCCn4cc(COCCOCCOCCNC(=O)c5cc(Oc6ccc(NC(=O)Nc7ccc(Cl)c(C(F)(F)F)c7)cc6)ccn5)nn4)c3C2=O)C(=O)N1 (stereo not drawn) [Compound 2.027, 4-(4-(3-(4-chloro-3-(trifluoromethyl)phenyl)ureido)phenoxy)-N-(2-(2-(2-((1-(6-((2-(2,6-dioxopiperidin-3-yl)-1,3-dioxoisoindolin-4-yl)amino)-6-oxohexyl)-1H-1,2,3-triazol-4-yl)methoxy)ethoxy)ethoxy)ethyl)picolinamide] | ++ (25% > RAF/E3 Dimerization ≥ 5%) |
| O=C1CCC(N2C(=O)c3cccc(NC(=O)CCCCCn4cc(CCNC(=O)c5cc(Oc6ccc(NC(=O)Nc7ccc(Cl)c(C(F)(F)F)c7)cc6)ccn5)nn4)c3C2=O)C(=O)N1 (stereo not drawn) [Compound 2.025, 4-(4-(3-(4-chloro-3-(trifluoromethyl)phenyl)ureido)phenoxy)-N-(2-(1-(6-((2-(2,6-dioxopiperidin-3-yl)-1,3-dioxoisoindolin-4-yl)amino)-6-oxohexyl)-1H-1,2,3-triazol-4-yl)ethyl)picolinamide] | ++ (25% > RAF/E3 Dimerization ≥ 5%) |
| Cc1ncc(NC(=O)c2cccc(C(F)(F)F)c2)cc1-c1cnc(OCCOCCOCCOCC(=O)NCCCCCCc2cccc3c2CN(C2CCC(=O)NC2=O)C3=O)c(N2CCOCC2)c1 (stereo not drawn) [Compound 2.018, N-(6′-((18-(2-(2,6-dioxopiperidin-3-yl)-1-oxoisoindolin-4-yl)-11-oxo-3,6,9-trioxa-12-azaoctadecyl)oxy)-2-methyl-5′-morpholino-[3,3′-bipyridin]-5-yl)-3-(trifluoromethyl)benzamide] | ++++ (75% > RAF/E3 Dimerization ≥ 50%) |
| Cc1ncc(NC(=O)c2cccc(C(F)(F)F)c2)cc1-c1cnc(OCCOCCOCCOCc2cn(CCCCC(=O)N[C@@H](C(=O)N3C[C@H](O)C[C@H]3C(=O)N[C@@H](C)c3ccc(-c4scnc4C)cc3)C(C)(C)C)nn2)c(N2CCOCC2)c1 [Compound 2.009, (2S,4R)-1-((R)-3,3-dimethyl-2-(5-(4-((2-(2-(2-((2′-methyl-5-morpholino-5′-(3-(trifluoromethyl)benzamido)-[3,3′-bipyridin]-6-yl)oxy)ethoxy)ethoxy)ethoxy)methyl)-1H-1,2,3-triazol-1-yl)pentanamido)butanoyl)-4-hydroxy-N—((S)-1-(4-(4-methylthiazol-5-yl)phenyl)ethyl)pyrrolidine-2-carboxamide] | +++ (50% > RAF/E3 Dimerization ≥ 25) |
